This is an account of results in patent US11147272B2, “Pyridone compounds and agricultural and horticultural fungicides comprising the same as active ingredients” (MITSUI CHEMICALS AGRO, INC., priority 2017, dated 2021).

For one assay, the system named is Phytophthora infestans. Kind of assay: whole plant or invertebrate. The following applies: for Test F control value: 250 ppm drug solution sprayed on test plant; for Test F control value class: Late blight on tomato, class of control value. The format is in vivo.
The test system of assay [1] is Blumeria graminis f. sp. hordei. The assay is described as follows: Test Example D: Powdery mildew on barley. The following applies: for Test D control value: 250 ppm drug solution sprayed on test plant; for Test D control value class: Powdery mildew on barley, class of control value.
Assay [2] deals with Colletotrichum orbiculare. The assay is described as follows: Test Example H: Anthracnose on cucumber. Particulars: for Test H control value: 250 ppm drug solution sprayed (2.5 ml/pot), cucumber Sagami Hanjiro, 6 to 10 days after inoculation; for Test H control value class: Anthracnose on cucumber (Sagami Hanjiro), 250 ppm spray, 2.5 ml/pot, assessed 6 to 10 days after inoculation.

A further assay relates to Alternaia brassicicola. The assay is described as follows: Test Example C: Alternaria sooty spot on cabbage. Format: in vivo. The following applies: for Test C control value: 250 ppm drug solution sprayed on test plant; for Test C control value class: Alternaria sooty spot on cabbage, class of control value. The source says: Seeds of a test plant (cabbage variety: Shikidori) were planted and cultivated until the cotyledons extended.
<Control Value> Control value=100{1−(n/3)}

The next assay concerns Puccinia recondita. Kind of assay: Test Example E: Brown rust on wheat. The format is in vivo. Particulars: for Test E control value: 250 ppm drug solution sprayed on test plant; for Test E control value class: Brown rust on wheat, class of control value.
The subject of another assay is Magnaporthe grisea. The assay is described as follows: whole plant or invertebrate. The format is in vivo. Particulars: for Test A control value: 250 ppm drug solution sprayed on test plant; for Test A control value class: Blast on rice, class of control value.
For a further assay, the system named is Plasmopara viticola. The assay is described as follows: Test Example G: Downy mildew on vine. Particulars: for Test G control value: 250 ppm drug solution sprayed (2.5 ml/pot), grape Neomuscat, 7 to 10 days after inoculation; for Test G control value class: Downy mildew on vine (Neomuscat), 250 ppm spray, 2.5 ml/pot, assessed 7 to 10 days after inoculation.
A further assay deals with Botrytis cinerea. Kind of assay: Test Example B: Gray mold on tomato. Particulars: for Test B control value: 250 ppm drug solution sprayed on test plant; for Test B control value class: Gray mold on tomato, class of control value.

Regarding `CCCc1cc(Br)c(=O)n(C)c1-c1ccc(F)cc1C` [compound 421], the “Test F control value” in the assay with Phytophthora infestans is recorded as “L (50% or less control value)”. Further, the “Test D control value” in assay [1] is “H (more than 50% control value)”. Moreover, the “Test H control value” in assay [2] is “H (more than 50% control value)”. Moreover, in the assay on Alternaia brassicicola, the “Test C control value” is “H (more than 50% control value)”. For the same molecule, the “Test E control value” in the assay with Puccinia recondita was “H (more than 50% control value)”. In addition, the “Test A control value” in the assay with Magnaporthe grisea was “L (50% or less control value)”. In addition, the “Test G control value” in the assay with Plasmopara viticola is on record as “L (50% or less control value)”. Also, in the assay on Botrytis cinerea, the “Test B control value” is “H (more than 50% control value)”.

As to `CCn1c(-c2ccc(OC)cc2F)c(CC(C)C)ccc1=O` [compound 111], in the assay with Phytophthora infestans, the “Test F control value class” value is on record as “L (50% or less control value)”. Besides, the “Test D control value class” value in assay [1] is “H (more than 50% control value)”. Also, in assay [2], the “Test H control value class” value is listed as “H (more than 50% control value)”. In the assay on Alternaia brassicicola, the “Test C control value class” value was “H (more than 50% control value)”. For the same molecule, the “Test E control value class” value in the assay on Puccinia recondita is recorded as “H (more than 50% control value)”. Further, the “Test A control value class” value with Magnaporthe grisea is recorded as “H (more than 50% control value)”. Further, the “Test G control value class” value in the assay on Plasmopara viticola is given as “H (more than 50% control value)”. In the assay with Botrytis cinerea, the “Test B control value class” value is given as “H (more than 50% control value)”.

In the case of `CCn1c(-c2ccc(C)cc2F)c(CC(C)C)cc(Br)c1=O` [compound 147], in the assay on Phytophthora infestans, the “Test F control value class” value is reported as “L (50% or less control value)”. Moreover, the “Test D control value class” value in assay [1] is “H (more than 50% control value)”. In addition, the “Test H control value class” value in assay [2] is listed as “L (50% or less control value)”. Also, the “Test C control value class” value in the assay with Alternaia brassicicola is reported as “H (more than 50% control value)”. Moreover, the “Test E control value class” value in the assay on Puccinia recondita was “H (more than 50% control value)”. Also, the “Test A control value class” value in the assay with Magnaporthe grisea is “H (more than 50% control value)”. In the assay on Plasmopara viticola, the “Test G control value class” value was “H (more than 50% control value)”. For the same molecule, the “Test B control value class” value in the assay with Botrytis cinerea is listed as “H (more than 50% control value)”.

As for `Cn1c(-c2c(F)cc(F)cc2F)c(C(C)(C)C)cc(Cl)c1=O` [compound 77], in the assay with Phytophthora infestans, the “Test F control value class” value is recorded as “L (50% or less control value)”. For the same molecule, the “Test D control value class” value in assay [1] was “H (more than 50% control value)”. Further, in assay [2], the “Test H control value class” value is reported as “L (50% or less control value)”. The “Test C control value class” value in the assay with Alternaia brassicicola was “H (more than 50% control value)”. For the same molecule, the “Test E control value class” value in the assay with Puccinia recondita is “H (more than 50% control value)”. In addition, the “Test A control value class” value in the assay with Magnaporthe grisea is on record as “L (50% or less control value)”. Further, the “Test G control value class” value in the assay on Plasmopara viticola is “L (50% or less control value)”. Besides, the “Test B control value class” value with Botrytis cinerea is given as “H (more than 50% control value)”.

As to `CCn1c(-c2c(F)cc(OC)cc2F)c(CN(C)OC)cc(Cl)c1=O` [compound 94], the “Test F control value class” value with Phytophthora infestans is reported as “H (more than 50% control value)”. Further, the “Test D control value class” value in assay [1] was “H (more than 50% control value)”. For the same molecule, the “Test H control value class” value in assay [2] is “H (more than 50% control value)”. For the same molecule, in the assay on Alternaia brassicicola, the “Test C control value class” value is on record as “H (more than 50% control value)”. Moreover, in the assay with Puccinia recondita, the “Test E control value class” value is listed as “H (more than 50% control value)”. Also, in the assay on Magnaporthe grisea, the “Test A control value class” value was “H (more than 50% control value)”. The “Test G control value class” value in the assay on Plasmopara viticola is listed as “H (more than 50% control value)”. For the same molecule, in the assay on Botrytis cinerea, the “Test B control value class” value is reported as “H (more than 50% control value)”.

On to `CCc1cc(Cl)c(=O)n(C)c1-c1ccc(OC)cc1C` [compound 374], for which the “Test F control value” in the assay with Phytophthora infestans is “L (50% or less control value)”. Moreover, in assay [1], the “Test D control value” is “H (more than 50% control value)”. The “Test H control value” in assay [2] was “L (50% or less control value)”. In the assay on Alternaia brassicicola, the “Test C control value” is “H (more than 50% control value)”. Further, the “Test E control value” in the assay on Puccinia recondita was “H (more than 50% control value)”. Besides, the “Test A control value” in the assay on Magnaporthe grisea is listed as “L (50% or less control value)”. Moreover, in the assay with Plasmopara viticola, the “Test G control value” was “L (50% or less control value)”. Further, the “Test B control value” in the assay with Botrytis cinerea is “H (more than 50% control value)”.

Consider `CCC(C)c1cc(Br)c(=O)n(CC)c1-c1c(F)cc(F)cc1F` (stereo not shown) [compound 32], for which the “Test F control value class” value in the assay on Phytophthora infestans was “L (50% or less control value)”. Besides, the “Test D control value class” value in assay [1] was “H (more than 50% control value)”. Further, in assay [2], the “Test H control value class” value was “H (more than 50% control value)”. Also, the “Test C control value class” value in the assay with Alternaia brassicicola is given as “H (more than 50% control value)”. In addition, the “Test E control value class” value in the assay on Puccinia recondita is recorded as “H (more than 50% control value)”. The “Test A control value class” value in the assay on Magnaporthe grisea is on record as “H (more than 50% control value)”. Moreover, the “Test G control value class” value in the assay on Plasmopara viticola is “L (50% or less control value)”. Also, the “Test B control value class” value with Botrytis cinerea was “H (more than 50% control value)”.

In the case of `CC(C)C(O)c1cc(Cl)c(=O)n(C)c1-c1c(F)cc(F)cc1F` (stereo not shown) [compound 447], the “Test F control value” with Phytophthora infestans is “L (50% or less control value)”. For the same molecule, the “Test D control value” in assay [1] is “H (more than 50% control value)”. Also, the “Test H control value” in assay [2] is “H (more than 50% control value)”. Besides, in the assay with Alternaia brassicicola, the “Test C control value” is “H (more than 50% control value)”. Besides, the “Test E control value” in the assay with Puccinia recondita is given as “H (more than 50% control value)”. Further, in the assay on Magnaporthe grisea, the “Test A control value” is listed as “H (more than 50% control value)”. In the assay with Plasmopara viticola, the “Test G control value” is “H (more than 50% control value)”. Besides, the “Test B control value” in the assay on Botrytis cinerea is “H (more than 50% control value)”.

`CCCc1cc(Cl)c(=O)n(CC)c1-c1ccc(OC)cc1Br` [compound 376]: the “Test F control value” in the assay with Phytophthora infestans is reported as “H (more than 50% control value)”. Further, the “Test D control value” in assay [1] is reported as “H (more than 50% control value)”. Besides, in assay [2], the “Test H control value” was “H (more than 50% control value)”. Besides, the “Test C control value” in the assay on Alternaia brassicicola is “H (more than 50% control value)”. Besides, the “Test E control value” with Puccinia recondita was “H (more than 50% control value)”. In the assay on Magnaporthe grisea, the “Test A control value” is listed as “H (more than 50% control value)”. The “Test G control value” in the assay on Plasmopara viticola is on record as “H (more than 50% control value)”. In addition, in the assay on Botrytis cinerea, the “Test B control value” was “H (more than 50% control value)”.

For `CCCc1cc(Br)c(=O)n(CC(F)F)c1-c1c(F)cc(F)cc1F` [compound 472], the “Test F control value” in the assay with Phytophthora infestans is “L (50% or less control value)”. Besides, in assay [1], the “Test D control value” was “H (more than 50% control value)”. In addition, in assay [2], the “Test H control value” is recorded as “H (more than 50% control value)”. The “Test C control value” with Alternaia brassicicola is reported as “H (more than 50% control value)”. In addition, in the assay on Puccinia recondita, the “Test E control value” is listed as “H (more than 50% control value)”. The “Test A control value” with Magnaporthe grisea is recorded as “H (more than 50% control value)”. Also, in the assay on Plasmopara viticola, the “Test G control value” is “H (more than 50% control value)”. For the same molecule, in the assay on Botrytis cinerea, the “Test B control value” is recorded as “H (more than 50% control value)”.

Regarding `CCOC(C)(c1cc(Br)c(=O)n(CC)c1-c1c(F)cc(OC)cc1F)C(C)C` (stereo not shown) [compound 468], in the assay with Phytophthora infestans, the “Test F control value” is reported as “H (more than 50% control value)”. Besides, in assay [1], the “Test D control value” is listed as “H (more than 50% control value)”. Besides, in assay [2], the “Test H control value” is given as “H (more than 50% control value)”. Moreover, the “Test C control value” in the assay with Alternaia brassicicola was “H (more than 50% control value)”. Also, the “Test E control value” with Puccinia recondita was “H (more than 50% control value)”. Moreover, the “Test A control value” in the assay with Magnaporthe grisea is given as “H (more than 50% control value)”. Also, the “Test G control value” in the assay with Plasmopara viticola is on record as “H (more than 50% control value)”. In the assay on Botrytis cinerea, the “Test B control value” was “H (more than 50% control value)”.
